The results in this text go back to patent US10981932B2, “Macrocyclic indole derivatives” (Bayer Aktiengesellschaft, priority 2016, dated 2021).

Molecules are shown by their SMILES. Where two headings read alike, the source gives them in different places. Bounds are passed on as bounds.

Data set [1] concerns the target MCL-1 (Homo sapiens, UniProt Q07820). The data set can be described thus: Protein-protein interaction assay MCL-1/Noxa BH3 peptide (MCL-1 assay), TR-FRET. Type of data set: binding. To be noted: MBP-MCL-1 / Noxa BH3-derived peptide, median. A digest of the protocol: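 TR-FRET, 665/622 nm emission ratio (excitation 330–350 nm), measured MCL-1/Noxa complex formation. 1 nM MBP-MCL-1, 50 mM Tris/HCl pH 7, 0.1% BGG, 2 mM DTT. Incubation 1 h at 22 °C, then overnight at 4 °C. IC50 by 4-parameter regression, normalized to DMSO (0%) and no-MCL-1 (100%) controls.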
On the technique in general: In TR-FRET formats the signal depends on donor and acceptor labels being close together.

In data set [2] the test system is SUDHL5. The data set can be described thus: Induction of cytotoxicity (CellTiter-Glo, 5 h), SUDHL5. (Cellular ATP, detected with luciferase, serves as a proxy for viable cell number.)
The subject of data set [3] is SUDHL10. Put plainly: Anti-proliferative effect (CellTiter-Glo, 72 h), SUDHL10. Type of data set: cell-based. To be noted: SUDHL10 cells, antiproliferation, 72 h incubation, median, read-out: Antiproli SUDHL10 [M] (median). A digest of the protocol: (§1)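 Cells were treated with compounds for 72 h at 37 °C in a humidified incubator, and viability was measured by CellTiter-Glo luminescence. A parallel day 0 plate, read the same way, gave the time zero baseline.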

In data set [4] the test system is SUDHL5. The data set can be described thus: Anti-proliferative effect (CellTiter-Glo, 72 h), SUDHL5. The conditions noted are these: SUDHL5 cells, antiproliferation, 72 h incubation, median, read-out: Antiproli SUDHL5 [M] (median). Type of data set: cell-based. The gist of the method:
as §1

Data set [5] deals with SUDHL5. Put plainly: Induction of caspase-3/7 activity (Caspase-Glo 3/7), SUDHL5. It is filed as cell-based. To be noted: caspase-3/7 induction, SUDHL5 cells, 3 h treatment, median. The gist of the method: (§2)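 DLBCL cells treated with compounds for 3 h at 37 °C, then caspase-3/7 activity read by Caspase-Glo 3/7 luminescence. Medium-only background subtracted; EC50 fitted with C0 fixed at 1 and top set to the reference compound's maximal induction.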

Data set [6] deals with SUDHL10. The data set can be described thus: Induction of cytotoxicity (CellTiter-Glo, 5 h), SUDHL10.
The test system of data set [7] is OPM2. The data set can be described thus: Anti-proliferative effect (CellTiter-Glo, 72 h), OPM2. It is filed as cell-based. The conditions noted are these: OPM2 cells, median, read-out: IC50 antiproliferation assay OPM2 [M] (median). The gist of the method: as §1
For data set [8], the system named is A2780. Put plainly: Anti-proliferative effect (CellTiter-Glo, 72 h), A2780. It is filed as cell-based. The conditions noted are these: A2780 cells, median, read-out: IC50 antiproliferation assay A2780 [M] (median). The gist of the method: as §1
Data set [9] has as its system SUDHL10. The data set can be described thus: Induction of caspase-3/7 activity (Caspase-Glo 3/7), SUDHL10. Type of data set: cell-based. To be noted: caspase-3/7 induction, SUDHL10 cells, 3 h treatment, median. The gist of the method:
as §2

Where [10] appears, read: Homo sapiens, SU-DHL-5, 5 h, read-out: Cytotox SUDHL5 [M] (median), SUDHL5 cells, cytotoxicity induction, CellTiter-Glo, 5 h incubation, median.
[11] abbreviates: Homo sapiens, SU-DHL10, 5 h, read-out: Cytotox SUDHL10 [M] (median), SUDHL10 cells, cytotoxicity induction, CellTiter-Glo, 5 h incubation, median.
[12] abbreviates: read-out: Cytotox SUDHL5 [M] (median), SUDHL5 cells, cytotoxicity induction, CellTiter-Glo, 5 h incubation, median.
Where [13] appears, read: read-out: Cytotox SUDHL10 [M] (median), SUDHL10 cells, cytotoxicity induction, CellTiter-Glo, 5 h incubation, median.

MCL-1, sequence (Q07820 whole entry): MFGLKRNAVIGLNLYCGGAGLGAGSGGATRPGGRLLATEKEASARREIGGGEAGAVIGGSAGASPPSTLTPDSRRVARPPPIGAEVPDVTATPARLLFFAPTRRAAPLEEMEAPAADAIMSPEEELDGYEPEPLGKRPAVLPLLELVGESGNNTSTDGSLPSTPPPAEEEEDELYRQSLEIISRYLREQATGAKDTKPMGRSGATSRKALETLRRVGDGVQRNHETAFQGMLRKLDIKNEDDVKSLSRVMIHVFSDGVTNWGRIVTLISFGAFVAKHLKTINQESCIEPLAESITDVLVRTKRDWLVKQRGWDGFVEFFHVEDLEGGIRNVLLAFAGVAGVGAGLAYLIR

In the case of `Cn1nc(CN2CCOCC2)c2c1COCCCCn1c(C(=O)O)c(CCCOc3cccc4ccccc34)c3cccc-2c31` (racemic) [Example 135, (rac)-1-methyl-3-(morpholin-4-ylmethyl)-7-[3-(naphthalen-1-yloxy)propyl]-1,10,11,12,13,15-hexahydropyrazolo[4′,3′:9,10][1,6]oxazacycloundecino[8,7,6-hi]indole-8-carboxylic Acid], the IC50 in [1] was 0.0147 µM; in data set [2] (setting [10]), 1.06e-05 M; in data set [3] (Homo sapiens, SU-DHL10, 72 h), 1.01e-05 M; in data set [4] (Homo sapiens, SU-DHL-5, 72 h), 7.26e-06 M; in data set [6] (setting [11]) it was more than 3.3e-05 M; in data set [7] (Homo sapiens, OPM-2, 72 h), more than 3.3e-05 M. Moreover, the IC50 in data set [8] (Homo sapiens, A2780, 72 h) was more than 3.3e-05 M. Also, the EC50 was 12.1 µM in data set [5] (Homo sapiens, SU-DHL-5, 3 h) and more than 33 µM in [9] (Homo sapiens, SU-DHL10, 3 h).

Turning to `CN1CCCn2c(C(=O)O)c(CCCOc3cccc4ccccc34)c3cccc(c32)-c2c(COc3ccc(N4CCN(S(C)(=O)=O)CC4)cc3)nn(C)c2C1` (single isomer, unassigned) [Example 1-47, (−)-7,9-dimethyl-11-({4-[4-(methylsulfonyl)piperazin-1-yl]phenoxy}methyl)-1-[3-(naphthalen-1-yloxy)propyl]-4,5,6,7,8,9-hexahydropyrazolo[3′,4′:7,8][1,5]diazecino[9,10,1-hi]indole-2-carboxylic Acid], the IC50 in [1] stood at 0.0193 µM; in data set [2] (setting [12]), 1.08e-05 M; in data set [3] it was 3.99e-06 M; in data set [4] it was 3.91e-06 M; in [6] (setting [13]), 1.32e-05 M; in data set [7], 8.35e-06 M. Moreover, the IC50 in data set [8] is 6.4e-06 M. Moreover, the EC50 in [5] was determined as 9.12 µM; in data set [9], 9.54 µM.

For the compound `Cn1nc(COc2ccc(S(C)(=O)=O)cc2)c2c1COCC=CCn1c(C(=O)O)c(CCCOc3cccc4ccccc34)c3cccc-2c31` (single isomer, unassigned) [Example 1-53, (E/Z)-1-methyl-3-{[4-(methylsulfonyl)phenoxy]methyl}-7-[3-(naphthalen-1-yloxy)propyl]-1,10,13,15-tetrahydropyrazolo[4′,3′:9,10][1,6]oxazacycloundecino[8,7,6-hi]indole-8-carboxylic Acid], the IC50 was 0.0162 µM in data set [1]; 6.49e-06 M in data set [2] (setting [12]); 7.2e-06 M in data set [3]; 1.36e-05 M in [4]; 7.89e-06 M in [6] (setting [13]); more than 3.3e-05 M in [7]. For the same compound, the IC50 in [8] came out at 2.48e-05 M. Besides, the EC50 in [5] was 10.2 µM; in [9], 7.5 µM.

On to `Cn1nc(COc2ccc(S(C)(=O)=O)cc2)c2c1COCCCCn1c(C(=O)O)c(CCCOc3cccc4ccccc34)c3cccc-2c31` (single isomer, unassigned) [Example 1-55, (−)-1-methyl-3-{[4-(methylsulfonyl)phenoxy]methyl}-7-[3-(naphthalen-1-yloxy)propyl]-1,10,11,12,13,15-hexahydropyrazolo[4′,3′:9,10][1,6]oxazacycloundecino[8,7,6-hi]indole-8-carboxylic Acid], for which the IC50 is 0.167 µM in [1]; more than 3.3e-05 M in data set [2] (setting [12]); 9.09e-06 M in [3]; 1.34e-05 M in data set [4]; 1.73e-05 M in data set [6] (setting [11]); more than 3.3e-05 M in data set [7] (Homo sapiens, OPM-2, 72 h). Also, in data set [8] (Homo sapiens, A2780, 72 h), the IC50 is 2.59e-05 M. Also, the EC50 in data set [5] and in data set [9] was more than 33 µM each time.

For the compound `Cn1nc(COc2ccc(S(C)(=O)=O)cc2)c2c1COCCCCn1c(C(=O)O)c(CCCOc3cccc4ccccc34)c3cccc-2c31` (single isomer, unassigned) [Example 1-56, (+)-1-methy-3-{[4-(methylsulfonyl)phenoxy]methyl}-7-[3-(naphthalen-1-yloxy)propyl]-1,10,11,12,13,15-hexahydropyrazolo[4′,3′:9,10][1,6]oxazacycloundecino[8,7,6-hi]indole-8-carboxylic Acid], the IC50 in data set [1] is 0.00684 µM; in data set [2] (setting [12]), 5.72e-06 M; in [3], more than 3.3e-05 M; in data set [4], more than 3.3e-06 M; in data set [6] (setting [13]), 2.95e-05 M; in data set [7], more than 3.3e-05 M. In addition, in data set [8], the IC50 was more than 3.3e-05 M. In addition, the EC50 turned out to be 5.7 µM in data set [5] and 7.13 µM in data set [9].

On to `CN1CCCn2c(C(=O)O)c(CCCOc3cccc4ccccc34)c3cccc(c32)-c2c(COc3ccc(C4CCOCC4)cc3)nn(C)c2C1` (single isomer, unassigned) [Example 1-58, (+)-7,9-dimethyl-1-[3-(naphthalen-1-yloxy)propyl]-11-{[4-(tetrahydro-2H-pyran-4-yl)phenoxy]methyl}-4,5,6,7,8,9-hexahydropyrazolo[3′,4′:7,8][1,5]diazecino[9,10,1-hi]indole-2-carboxylic Acid], for which the IC50 in [1] came to 0.0189 µM; in data set [2] (setting [10]) it was 1.2e-05 M; in [3] (Homo sapiens, SU-DHL10, 72 h) it was 7.32e-06 M; in data set [4] (Homo sapiens, SU-DHL-5, 72 h), 1.17e-05 M; in [6] (setting [11]), 2.14e-05 M; in data set [7] (Homo sapiens, OPM-2, 72 h), 2.01e-05 M. In addition, the IC50 in [8] (Homo sapiens, A2780, 72 h) is 1.31e-05 M. For the same compound, the EC50 in data set [5] (Homo sapiens, SU-DHL-5, 3 h) worked out at 12.2 µM; in data set [9] (Homo sapiens, SU-DHL10, 3 h), 17.3 µM.

As for `CN1CCCn2c(C(=O)O)c(CCCOc3cccc4ccccc34)c3cccc(c32)-c2c(COc3ccc(C4CCOCC4)cc3)nn(C)c2C1` (single isomer, unassigned) [Example 1-59, (−)-7,9-dimethyl-1-[3-(naphthalen-1-yloxy)propyl]-11-{[4-(tetrahydro-2H-pyran-4-yl)phenoxy]methyl}-4,5,6,7,8,9-hexahydropyrazolo[3′,4′:7,8][1,5]diazecino[9,10,1-hi]indole-2-carboxylic Acid], the IC50 is 0.0938 µM in [1]; 1.24e-05 M in [2] (setting [12]); 6.64e-06 M in data set [3]; 1.06e-05 M in data set [4]; 2.01e-05 M in data set [6] (setting [13]); 1.26e-05 M in data set [7]. Further, the IC50 in data set [8] is 1.16e-05 M. The values for the EC50 in data set [5] and in data set [9] were 17.9 µM and 15.1 µM, respectively.

Consider `Cn1nc(COc2ccc(C3=CCOCC3)cc2)c2c1COCCCCn1c(C(=O)O)c(CCCOc3cccc4ccccc34)c3cccc-2c31` (single isomer, unassigned) [Example 1-62, 3-{[4-(3,6-dihydro-2H-pyran-4-yl)phenoxy]methyl}-1-methyl-7-[3-(naphthalen-1-yloxy)propyl]-1,10,11,12,13,15-hexahydropyrazolo[4′,3′:9,10][1,6]oxazacycloundecino[8,7,6-hi]indole-8-carboxylic Acid], for which the IC50 is 0.67 µM in [1]; 1.2e-05 M in data set [2] (setting [10]); 3.36e-06 M in data set [3]; 1.02e-05 M in data set [4]; 1.96e-05 M in [6] (setting [13]); 7.6e-06 M in [7] (Homo sapiens, OPM-2, 72 h). In addition, the IC50 in [8] worked out at 5.49e-06 M. Besides, the EC50 in data set [5] (Homo sapiens, SU-DHL-5, 3 h) turned out to be 14.5 µM; in data set [9] (Homo sapiens, SU-DHL10, 3 h), 13.1 µM.

For `Cn1nc(COc2ccc(C3=CCOCC3)cc2)c2c1COCCCCn1c(C(=O)O)c(CCCOc3cccc4ccccc34)c3cccc-2c31` (single isomer, unassigned) [Example 1-63, 3-{[4-(3,6-dihydro-2H-pyran-4-yl)phenoxy]methyl}-1-methyl-7-[3-(naphthalen-1-yloxy)propyl]-1,10,11,12,13,15-hexahydropyrazolo[4′,3′:9,10][1,6]oxazacycloundecino[8,7,6-hi]indole-8-carboxylic Acid], the IC50 in [1] turned out to be 0.00864 µM; in data set [2] (setting [12]) it was 6.23e-06 M; in [3], 7.77e-06 M; in [4], 3.37e-06 M; in [6] (setting [13]), 7.04e-06 M; in [7] it was 1.18e-05 M. Besides, in [8], the IC50 turned out to be 1.11e-05 M. In addition, the EC50 was 7.66 µM in [5] and 7.32 µM in data set [9].

For orientation: EC50 means the concentration needed to bring the measured effect to its halfway point.
